Experimental data published in US8389544B2, “Isoquinolone compounds as subtype-selective agonists for melatonin receptors MT1 and MT2” (The Hong Kong University of Science and Technology, priority 2007, dated 2013).
Where two headings read alike, the source gives them in different places.

Experiments:
Assay type in all cases: cell-based
MT1/293 = assay: MTT cytotoxicity assay, MT1/293 cells; details: percentage of untreated control cells
Procedure: This assay evaluates the cytotoxic effects of the novel isoquinolone compounds based on the cellular viability under chronic treatments. Viable cells but not dead cells can turn the substrate into a colored product, which yields higher absorbance. […] A low percentage indicates low cytoviability (or high cytotoxicity).
5. Cytotoxicity Test Using MTT Assay
Cells were seeded into clear 96-well plate at an appropriate density in 100 μl growth medium and were allowed to grow overnight. The novel isoquinolone compounds were diluted to desired concentrations using fresh growth medium, and these dilutions were used to replace the growth media in each well. After incubating for 24-96 h, 10 μl of the MTT labeling reagent (Roche) was added to each well and the cells were incubated in a CO2 incubator for 4 h. 100 μl solubilization buffer was then added into each well and incubated overnight for complete solubilization of the purple formazan crystals. […] Each condition was performed in triplicate in every experiment and the results were expressed as % of blank control±SD.

MT1 receptor [1] = target: T1, MT1 receptor (Homo sapiens, UniProt P48039); assay: ERK phosphorylation assay, MT1; set-up: expressed in transfected cells; details: HEK293 cells; isoquinolone 1 μM or 2-iodomelatonin 100 nM, 5 min; against unstimulated control cells
T1 sequence (P48039 whole entry): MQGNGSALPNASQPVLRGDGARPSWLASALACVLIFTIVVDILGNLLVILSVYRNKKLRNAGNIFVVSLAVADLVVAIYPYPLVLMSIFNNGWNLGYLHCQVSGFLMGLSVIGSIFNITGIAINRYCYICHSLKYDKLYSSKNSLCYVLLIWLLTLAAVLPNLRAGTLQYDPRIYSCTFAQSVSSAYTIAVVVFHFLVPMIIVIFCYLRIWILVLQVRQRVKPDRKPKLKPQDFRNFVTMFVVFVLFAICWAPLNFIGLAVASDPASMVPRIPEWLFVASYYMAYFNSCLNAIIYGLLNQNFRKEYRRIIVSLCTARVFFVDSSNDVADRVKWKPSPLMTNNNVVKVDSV
Text: (§1) 3. ERK Phosphorylation Assay This assay indicates the ability of the novel compounds to activate MT1 or MT2 receptors by measuring downstream events of the activated receptor, in this case ERK phosphorylation. The amount of phosphorylated ERK1/2 was detected and quantified in western blots. The data in Table 2 is expressed as the fold stimulation against the unstimulated control cells. 6. Detection of ERK phosphorylation […] Stimulation was terminated by aspiration on ice and immediate lysis by 200 μl of 1× protein gel loading buffer. Lysates were denatured by boiling for 5 min and cooled at room temperature until loading. 30 μl of each lysate was separated on 12% SDS-PAGE and transferred to nitrocellulose membrane by electroblotting. Success of transfer was visualized by Ponceau S staining. All subsequent incubations were under gentle agitation (˜100 strokes/min). […] Primary antisera against phosphorylated- or total-ERK1/2 were incubated with the blocked membrane at an appropriate dilution (1:4000-1:2000) in Blotto for overnight at 4° C. The membrane was washed with fresh Blotto for 3 times of 15 min each, then incubated with secondary antiserum (horseradish peroxidase-conjugated anti-rabbit IgG) at the dilution of 1:1000 in 1×TBS for 1 h at room temperature. The membrane was quickly rinsed with excessive 1×TBS for 3 times, and followed by 4 washes of 1×TBS for 10 min. By the end, a premix of luminol-based chemiluminescence substrate solution was prepared (1 ml for every 8 cm^2 of membrane) and overlaid onto the washed membrane to incubate for 1 min. After removing excessive solution, the membrane was covered with saran wrap and an autograph with appropriate exposure was developed on X-ray film in dark room. The image was scanned and the band intensities quantified using ImageJ 1.34. Data was expressed as the percentage response of the vehicle-treated or untreated samples. Experiments were performed at least 3 times and the average responses±SEM were presented.

MT2 receptor = target: T2, MT2 receptor (Homo sapiens, UniProt P49286); assay: ERK phosphorylation assay, MT2; set-up: expressed in transfected cells; details: HEK293 cells; isoquinolone 1 μM or 2-iodomelatonin 100 nM, 5 min; against unstimulated control cells
T2 sequence (P49286 1-362): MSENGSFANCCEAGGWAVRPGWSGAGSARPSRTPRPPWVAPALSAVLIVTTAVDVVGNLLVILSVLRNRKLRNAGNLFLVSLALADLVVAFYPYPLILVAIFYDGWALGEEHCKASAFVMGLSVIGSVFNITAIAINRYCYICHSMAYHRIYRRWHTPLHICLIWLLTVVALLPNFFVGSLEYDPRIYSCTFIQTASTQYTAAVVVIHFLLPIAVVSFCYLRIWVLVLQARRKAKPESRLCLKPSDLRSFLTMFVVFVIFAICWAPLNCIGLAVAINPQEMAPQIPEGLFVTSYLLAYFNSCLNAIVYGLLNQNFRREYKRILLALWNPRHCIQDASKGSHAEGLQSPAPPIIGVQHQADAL
Text: as §1

MT1 receptor [2] = target: T1, MT1 receptor; assay: FLIPR Ca2+ mobilization assay, MT1; set-up: expressed in transfected cells; host or cells: COS-7 (monkey kidney fibroblast); details: for logEC50 ± SEM: NSR = No significant response; for % Response of 2-IMT: relative to 2-IMT response
Procedure: 1. FLIPR Ca^2+ Mobilization Assay
This assay indicates the ability of the novel compounds to activate MT1 and MT2 receptors by measuring downstream events of the activated receptor, in this case intracellular calcium mobilization.
1. Intracellular Ca^2+ Mobilization Assay Using Fluorometric Imaging Plate Reader (FLIPR®)
An intracellular calcium mobilization assay was performed to screen the isoquinolone compounds against the two melatonin receptor subtypes, MT1 and MT2 on the fluorometric imaging plate reader (FLIPR®). In order to facilitate the screening process in a high-throughput manner, chimeric G proteins with the ability to couple to a range of GPCR as well as activate intracellular Ca^2+ were employed. The melatonin receptor subtype (either MT1 or MT2) was co-expressed with the G-protein chimeras in COS-7 (monkey kidney fibroblast) cells. During the assay, cells were exposed to the novel isoquinolone compounds and the corresponding change in fluorescence was measured. Both single point and dose-dependant assays were performed for each isoquinolone compound and based on the latter a dose response curve was generated and the corresponding EC50 for each receptor subtype determined.
Specifically, COS-7 cells were seeded at a density of 20,000 cells/well into 96-well plates designed for FLIPR assays, using Opti-MEM with 10% FCS at a volume of 100 μl/well. Transfection was carried out using Lipofectamine 2000® reagent. In each well, 0.2 μg of the GPCR and G protein cDNA were diluted with 25 μl of Opti-MEM and 0.2 μl of Lipofectamine 2000® was diluted with another 25 μl of Opti-MEM. They were added to appropriate wells after the two components were mixed for 20 min.
After 48 hours of incubation post-transfection, 50 μl of the transfection medium was removed from each well followed by the labelling of transfected cells with 100 μl of 2 μM Fluo-4 in calcium containing HBSS (Hank's balanced salt solution) with 20 mM HEPES (N-[2-hydroxyethyl]piperazine—N′-[2-ethanesulfonic acid]; pH 7.5) and 2.5 mM probenecid (anion exchanger inhibitor, freshly prepared) for 1 hour at 37° C. 70 μl of 3× drugs (isoquinolinone compounds encompassing the invention) were prepared and aliquoted into the corresponding wells in the V-well drug plate. Changes in fluorescence were detected in the FLIPR 96 with an excitation wavelength of 488 nm. The background fluorescence was adjusted to the range of 8,000 to 12,000 units by altering the laser power and exposure time (typically 0.4 W and 0.4 sec, respectively) for the FLIPR setup. 50 μl of each agonist solution was added to the corresponding wells and the fluorescent emission (between 510 and 560 nm) was monitored for 3 min. Results were expressed as change in fluorescent intensity units (FIU). Concentration-response curves were generated by determining the maximal change in FIU of each data set. Numerical analysis of the statistics and EC50 (median effective concentration) values were performed on GraphPad Prism version 3.03.
Then the intracellular Ca^2+ mobilization assays using the Fluorometric Imaging Plate Reader (FLIPR®) were performed as described above.

[3] = Table 1, MT1 in COS-7 cells with chimeric G protein, log value, negative, NSR = no significant response
[4] = Table 2, MT1, log value, negative
[5] = Table 1, MT1 in COS-7 cells with chimeric G protein, log value, negative, NSR = no significant response, read-out: Log(EC50) ± SEM (converted)

Compound	MTT Assay MT1/293 % Viability ± SEM (MT1/293)	ERK Phosphorylation MT1 Fold Stim. (MT1 receptor [1])	ERK Phosphorylation MT2 Fold Stim. (MT2 receptor)	Log(EC50) ± SEM (MT1 receptor [2]; [3])	logEC50 ± SEM (MT1 receptor [2]; [4])	% Response of 2-IMT (MT1 receptor [2]; Table 1, MT1)	EC50 (MT1 receptor [2]; [5])	EC50 (MT1 receptor [2]; Table 2, MT1, read-out: EC50)
Cn1ccc2cc(OC(=O)c3ccccc3)c(OC(=O)c3ccccc3)cc2c1=O [IS039]	108.5 ± 3.2%	2.75 Fold	1.98 Fold	NSR	NSR	–	–	–
COc1cc(COc2cc3ccn(C)c(=O)c3cc2OC)cc(OC)c1 [IS042]	71.6 ± 4.7%	4.94 Fold	5.59 Fold	–	–	49.4%	12 nM	12 nM
COc1cccc(COc2cc3ccn(C)c(=O)c3cc2OC)c1 [IS044]	112.6 ± 5.8%	3.25 Fold	3.50 Fold	−6.79 ± 0.17	−6.79 ± 0.17	54.5%	–	161 nM
COc1cccc(COc2cc3c(=O)n(C)ccc3cc2OC)c1 [IS521]	89.8 ± 8.3%	3.80 Fold	3.01 Fold	–	–	31.8%	1860 nM	1860 nM
COc1cc(COc2cc3c(=O)n(C)ccc3cc2OC)cc(OC)c1 [IS523]	51.6 ± 1.1%	3.74 Fold	2.07 Fold	NSR	NSR	–	–	–
COc1cc2ccn(C)c(=O)c2cc1OCc1ccc(C(C)(C)C)cc1 [IS526]	25.0 ± 4.4%	–	–	−5.35 ± 1.32	−5.35 ± 1.32	46.2%	–	4490 nM
COc1cccc(COc2c(OC)ccc3c(=O)n(C)ccc23)c1 [IS527]	57.1 ± 3.0%	2.47 Fold	2.21 Fold	NSR	NSR	–	–	–
COc1cc(COc2c(OC)ccc3c(=O)n(C)ccc23)cc(OC)c1 [IS528]	50.2 ± 5.7%	1.73 Fold	1.71 Fold	−5.15 ± 0.51	−5.15 ± 0.51	42.1%	–	7140 nM
COc1ccc2c(=O)n(C)ccc2c1OCc1ccc(C)cc1 [IS529]	54.9 ± 2.5%	2.37 Fold	1.23 Fold	NSR	NSR	–	–	–
